According to article PMC10817170, “Effect of an NHE3 inhibitor in combination with an NPT2b inhibitor on gastrointestinal phosphate absorption in Rodent models” (PLOS ONE, 2024):

Tests used:
[1] = test system: acute phosphate uptake into plasma; test: Acute radiolabeled phosphate uptake into plasma in mice; type: in vivo
Experimental: A dosing solution for a 10 mg/kg dose of LY3304000 using a 10 mL/kg dosing volume was made in 1% HEC vehicle. The subsequent dosing solutions for 3, 1, 0.3, 0.1, 0.03, 0.01, 0.003, and 0.001 mg/kg were prepared by serial dilutions with HEC. A Radiolabeled Phosphate Dosing Solution was made in a 16.25 mM Na2HPO4, 0.9% saline, pH 7.4, solution with the addition of about 2.5 μCi/mL radioactive phosphate (H3^33PO4, PerkinElmer) and filtered before dosing. Following 12-hour fasting with access to water, male SD rats were orally dosed at 10 mL/kg with either vehicle or varying doses of LY3304000. Fifteen minutes later, 2 mL of the Radiolabeled Phosphate Dosing Solution was dosed by oral gavage. This dose of phosphate was chosen because it approximates the rat equivalent to the amount of bioavailable phosphate in a human meal, 4 mg/kg phosphorus, or 320 mg phosphorus for an 80 kg person on a phosphate restricted diet. Fifteen minutes later, blood was collected by cardiac stick, and plasma was prepared. Radioactivity (dpm) in 50 μL plasma was measured by scintillation counting. To determine the total radioactivity dosed to each rat, the radioactivity in two 10-μL samples of the Radiolabeled Phosphate Dosing Solution was measured by scintillation counting. To calculate the total radioactivity recovered in plasma, it was assumed that total blood volume constitutes about 60% of the body weight and plasma constitutes about 55% of the total blood. The mole amount of phosphate uptake was calculated as the percentage of administered radiolabeled phosphate recovered in the plasma of vehicle or LY3304000 treated rats multiplied by total phosphate amount in the radiolabeled phosphate dosing solution. ED50 values were then determined with a 4-parameter logistic curve fitting model using GraphPad Prism. A 15-minute time point, post phosphate dosing, was chosen for collecting blood in the acute phosphate uptake studies in rats and mice (see below) to capture the initial rate of phosphate absorption. We wanted to avoid measurements at longer time points when plasma radiolabeled phosphate appears to be at a steady state. LY3304000 dosing solution and Radioactive Phosphate Dosing Solution were made as described above. Following 12-hour fasting with access to water, male C57Bl/6 mice were dosed orally at 10 mL/kg with either vehicle or varying doses of LY3304000. Fifteen minutes later, 200 μL of the Radiolabeled Phosphate Dosing Solution was dosed by oral gavage. Fifteen minutes later, blood was collected by cardiac stick, and plasma was prepared. The measurement of acute phosphate uptake was determined as described above for rats.

[2] = test system: acute phosphate uptake into plasma; test: Acute phosphate uptake in rats, LY3304000 with fixed 1.2 mg/kg LY3358966; type: in vivo
Experimental: NHE3 inhibitor LY3304000 and NPT2b inhibitor LY3358966 SDD were used in combination to assess their effect on phosphate absorption in rats. To make the LY3358966 dosing solution, an appropriate amount of LY3358966 SDD was weighed for a 1.2 mg/kg API dosing solution with 10 mL/kg dosing volume and dissolved in water. To make the LY3304000 dosing solution, an appropriate amount of LY3304000 was weighed for a 10 mg/kg dose with 10 mL/kg dosing volume and dissolved in 1% HEC vehicle. The subsequent dosing solutions for 3, 1, 0.3, 0.1, 0.03, 0.01, 0.003, and 0.001 mg/kg LY3304000 were prepared by serial dilutions with 1% HEC. Following 12-hour fasting, male SD rats were orally dosed at 10 mL/kg with 1% HEC vehicle, 1.2 mg/kg LY3358966 or increasing doses of LY3304000 with a fixed, 1.2 mg/kg dose of LY3358966. In the vehicle group, the animals were dosed first with 1% HEC immediately followed by water. In the LY3358966 alone group, the animals were first dosed with 1% HEC immediately followed by LY3358966. In the combination groups, the animals were dosed first with LY3304000 immediately followed by LY3358966. Fifteen minutes later, 2 mL Radiolabeled Phosphate Dosing Solution was orally dosed. Fifteen minutes later, blood was collected by cardiac stick, and plasma was prepared. Radioactivity (dpm) in 50-μL plasma was measured by scintillation counting. To measure the total radioactivity dosed to each rat, the radioactivity in two 10-μL samples of the Radiolabeled Phosphate Dosing Solutions was measured by scintillation counting. The mole amount of phosphate uptake was calculated as described above to determine acute phosphate uptake.

[3] = Pharmacokinetics study after oral dosing; type: in vivo, rats
Experimental: Following oral dosing of the free base from of LY3304000 in a vehicle of 1% Hydroxyethylcellulose, 0.25% Polysorbate 80, and 0.05% Antifoam in purified water, the level of LY3304000 in rat blood 2.5-hour post dose was below the limit of quantification of LY330400 (0.815 nM with LC/MS method). Further characterization of the pharmacokinetic properties of LY3304000 was hampered by an inability to identify an appropriate vehicle for IV dosing.

Human Pit-2 = molecular target: T1, Human Pit-2 (Homo sapiens, UniProt Q08357); test: Pit-2 activity assay (33P phosphate uptake in CHO cells); type: cell-based; conditions: n=1
T1 construct: expressed in transfected cells; host or cells: CHO cells, constitutive expression
T1 sequence (Q08357 1-652): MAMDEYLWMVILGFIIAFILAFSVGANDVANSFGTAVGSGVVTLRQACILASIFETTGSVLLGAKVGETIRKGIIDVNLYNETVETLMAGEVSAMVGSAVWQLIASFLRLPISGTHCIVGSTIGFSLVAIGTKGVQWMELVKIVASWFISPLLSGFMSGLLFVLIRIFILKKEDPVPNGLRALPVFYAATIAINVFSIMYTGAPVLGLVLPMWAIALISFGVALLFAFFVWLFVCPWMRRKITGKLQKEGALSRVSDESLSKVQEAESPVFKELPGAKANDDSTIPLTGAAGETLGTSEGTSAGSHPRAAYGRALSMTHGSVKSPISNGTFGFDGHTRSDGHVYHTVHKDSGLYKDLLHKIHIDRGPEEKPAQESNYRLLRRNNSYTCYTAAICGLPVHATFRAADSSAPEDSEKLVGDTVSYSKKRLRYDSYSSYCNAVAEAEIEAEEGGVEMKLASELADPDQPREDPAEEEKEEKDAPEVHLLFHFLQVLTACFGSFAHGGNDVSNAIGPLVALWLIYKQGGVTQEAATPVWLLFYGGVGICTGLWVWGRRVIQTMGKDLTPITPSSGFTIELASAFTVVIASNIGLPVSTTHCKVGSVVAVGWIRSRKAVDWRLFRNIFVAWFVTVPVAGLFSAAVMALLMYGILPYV
Experimental: Generation of constitutive human Pit-2 and SGLT1 overexpressing CHO cells and activity assays measuring the uptake of ^33P phosphate for 45 minutes at 20°C for Pit-2 and ^14C-α-methyl-D-glucopyranoside for 120 minutes at 37°C for SGLT1, were also described previously.

detection in plasma following oral dosing ([3]; oral dosing): could not be detected
concentration at 2.5 h ([3]; rat, whole blood, oral, free base, 2.5-hour post dose, below limit of quantification (LC/MS), read-out: level in rat blood): < 0.815 nM
IC50 (Human Pit-2): > 100 µM
Compound: CN1Cc2c(Cl)cc(Cl)cc2[C@H](c2cccc(S(=O)(=O)NCCOCCOCCN/C(=N\C(N)=O)NCCCCN/C(=N/C(N)=O)NCCOCCOCCNS(=O)(=O)c3cccc([C@@H]4CN(C)Cc5c(Cl)cc(Cl)cc54)c3)c2)C1.Cl.Cl [LY3304000, (Z)-[[4-[[(Z)-N’-carbamoyl-N-[2-[2-[2-[[3-[(4S)-6,8-dichloro-2-methyl-3,4-dihydro-1H-isoquinolin-4-yl]phenyl]sulfonylamino]ethoxy]ethoxy]ethyl]carbamimidoyl]amino]butylamino]-[2-[2-[2-[[3-[(4S)-6,8-dichloro-2-methyl-3,4-dihydro-1H-isoquinolin-4-yl]phenyl]sulfonylamino]ethoxy]ethoxy]ethylamino]methylene]urea dihydrochloride]
ED50 ([1]; Mus musculus, po, 0.25 h, oral, plasma 15 min post 33P phosphate, read-out: ED50 (increase of phosphate uptake)): 0.48 mg/kg
Emax, Pi uptake ([1]; curve fit): 80.01 nmol
radiolabeled phosphate recovered in plasma ([1]; highest doses tested, vehicle 39 nmoles): 78 nmol
ED50 (increase of phosphate uptake) ([1]; oral, plasma 15 min post 33P phosphate): 0.479 mg/kg
acute phosphate uptake, % of vehicle control ([2]; highest dose of LY3304000 plus 1.2 mg/kg LY3358966): 30%
acute phosphate uptake into plasma ([2]; highest dose of LY3304000 tested plus 1.2 mg/kg LY3358966, vehicle 710 nmoles): 212 nmol
